Patent publication US20090105320A1, “Biodal Compositions Containing 1,2-Benzisothiazolin-3-One And 1,2-Dibromo-2,4-Dicyanobutane” (priority 2006, published 2009)
Where two headings read alike, the source gives them in different places.

Assays:
[1] = Storage stability (appearance of solution) in different solvents at −5° C., +20° C. and +50° C., 14 days' storage; assay type: physicochemical
[2] = Solubilities of biocidal active substances in different solvents at 25° C.; assay type: physicochemical
[3] = cited from earlier work
[4] = in Butyl polyglycol, 14 days' storage
[5] = in Diethylene glycol, 14 days' storage
[6] = in Dimethyl sulfoxide, 14 days' storage
[7] = in N-Methylpyrrolidone, 14 days' storage
[8] = in Polyethylene glycol 300, 14 days' storage
[9] = in Polyethylene glycol 300, 25° C.
[10] = in Polyethylene glycol 400/glycerol 3:1, 25° C.
[11] = in TEGDME (tetraethylene glycol dimethyl ether), 25° C.
[12] = in dimethyl sulfoxide or N-methylpyrrolidone

SMILES	Storage stability at +20° C. [1, 4]	Storage stability at +50° C. [1, 4]	Storage stability at −5° C. [1, 4]	Storage stability at +20° C. [1, 5]	Storage stability at +50° C. [1, 5]	Storage stability at −5° C. [1, 5]	Storage stability at +20° C. [1, 6]	Storage stability at +50° C. [1, 6]	Storage stability at −5° C. [1, 6]	Storage stability at +20° C. [1, 7]	Storage stability at +50° C. [1, 7]	Storage stability at −5° C. [1, 7]	Storage stability at +20° C. [1, 8]	Storage stability at +50° C. [1, 8]	Storage stability at −5° C. [1, 8]	Solubility [25° C.] ([2]; in 2-Ethylhexanol, 25° C.)	Solubility [25° C.] ([2]; in Butyl diglycol, 25° C.)	Solubility [25° C.] ([2]; in Butyl polyglycol, 25° C.)	Solubility [25° C.] ([2]; in Diethylene glycol, 25° C.)	Solubility [25° C.] ([2]; in Dimethyl sulfoxide, 25° C.)	other results
O=c1[nH]sc2ccccc12 [1,2-Benzisothiazolin-3-one, 1,2-benzisothiazolin-3-one]	clear solution	clear solution	clear solution	clear solution	clear solution	clear solution	clear solution	clear solution	clear solution	clear solution	clear solution	clear solution	clear solution	clear solution	clear solution	insoluble	7%	10%	7%	30%	Solubility [25° C.] ([2]; in Dipropylene glycol, 25° C.): 5%; Solubility [25° C.] ([2]; in Glycerol, 25° C.): insoluble; Solubility [25° C.] ([2]; in N-Methylpyrrolidone, 25° C.): 7%; Solubility [25° C.] [2, 9]: 8%; Solubility [25° C.] [2, 10]: 7%; Solubility [25° C.] ([2]; in Polyglycol D 21/150, 25° C.): 4%; Solubility [25° C.] ([2]; in Polyglycol M 350, 25° C.): 9%; Solubility [25° C.] [2, 11]: 8%; Active substance content at which solutions are stable ([3]; propylene glycol/water or diethylene glycol/water mixture, U.S. Pat. No. 4,188,376, higher concentrated solutions liable to precipitation): below 5 % by weight; Solubility in water ([3]; water): sparingly soluble
N#CCCC(Br)(C#N)CBr (stereo not shown) [1,2-Dibromo-2,4-dicyanobutane, 1,2-dibromo-2,4-dicyanobutane]	clear, yellowish	clear, yellowish	clear, colorless	clear, colorless	clear, colorless	clear, colorless	brown solution	black solution	clear, yellowish	brown solution	black solution	clear, yellowish	clear, yellowish	clear, yellowish	clear, colorless	insoluble	30%	40%	20%	45%	Solubility [25° C.] ([2]; in Dipropylene glycol, 25° C.): 10%; Solubility [25° C.] ([2]; in Glycerol, 25° C.): insoluble; Solubility [25° C.] ([2]; in N-Methylpyrrolidone, 25° C.): 40%; Solubility [25° C.] [2, 9]: 35%; Solubility [25° C.] [2, 10]: 20%; Solubility [25° C.] ([2]; in Polyglycol D 21/150, 25° C.): 15%; Solubility [25° C.] ([2]; in Polyglycol M 350, 25° C.): 45%; Solubility [25° C.] [2, 11]: 45%; Chemical stability [3, 12]: chemically unstable; Solubility [3, 12]: readily soluble; Solubility ([3]; in solvents such as glycerol or 2-ethylhexanol): sparingly soluble
